Test system: rat TM fragment
Test: Integrity of the TM fragment and seal, trypan-blue dye transit into the lower chamber
Type: in vitro ADME
Details: 0.5% trypan-blue in upper chamber, immediately and after 1–4 hours, visual and absorbance at 590 nm
From the text: Rat TMs were interposed between the two chambers.

- dye transit into the lower chamber across an intact TM fragment: excluded from the lower chamber
SMILES: Cc1cc(-c2ccc(/N=N/c3c(S(=O)(=O)O)cc4cc(S(=O)(=O)O)cc(N)c4c3O)c(C)c2)ccc1/N=N/c1c(S(=O)(=O)O)cc2cc(S(=O)(=O)O)cc(N)c2c1O [trypan-blue]

From publication PMC6081404, “Active Transport of Peptides Across the Intact Human Tympanic Membrane” (Scientific Reports, 2018)
